Series [1] in a line: Stability in Simulated Intestinal Fluid (SIF). In kind it is in vitro ADME. Also on record: key: % parent compound remaining relative to 0-minute sample. An outline of the steps: (§1)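 Stability was tested at 37° C in pepsin-supplemented gastric fluid, pH 1.2, and pancreatin-supplemented intestinal fluid, pH 6.8, using 2 μg/mL final compound over 0–60 minutes. Remaining parent was quantified by LC-MS/MS and expressed as a percentage of time zero.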

The nature of series [2]: Caco-2 Permeability Assay. Conditions: human. The class given is in vitro ADME, human. An outline of the steps: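 Caco-2 monolayers cultured 21 days (TEER >600 […]); test article at 10 μM in HBSS/HEPES pH 7.4 transport medium, dosed apical or basolateral, ±Pgp inhibitor. Incubated 90 min at 37 °C; both compartments quantified by LC-MS/MS. Papp (A→B, B→A), efflux ratio and % recovery calculated.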
For orientation: Passage across Caco-2 layers is used to estimate intestinal permeability.

Series [3] can be described thus: Plasma Stability. In kind it is in vitro ADME, human. Put shortly:
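Compounds incubated at 1 μM in fresh human plasma for 1 hour at 37° C, then protein-precipitated with acetonitrile/formic acid containing internal standard. Remaining parent measured by LC-MS/MS in triplicate, expressed as percent of control remaining.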

Series [4] can be described thus: Stability in Simulated Gastric Fluid (SGF). The class given is in vitro ADME. Further details: key: % parent compound remaining relative to 0-minute sample. An outline of the steps:
as §1

Setting [5] is: % remaining at 1 h, SIF with pancreatin pH 6.8, 2 μg/mL, 37° C.
Where [6] appears, read: Caco-2, pH 7.4, no unit printed at the place (tables the 9th table and the 10th table have no head).
Where [7] appears, read: % remaining at 1 h, human plasma, 1 μM, 37° C.
The mark [8] stands for this setting: % remaining at 1 h, SGF with pepsin pH 1.2, 2 μg/mL, 37° C.
Where [9] appears, read: Caco-2, pH 7.4, donor 10 μM, 90 minutes, 37° C., direction not given.
Setting [10] is: % remaining at 1 h in simulated intestinal fluid.
The mark [11] stands for this setting: Caco-2, pH 7.4, Caco-2 monolayer.
[12] abbreviates: % remaining at 1 h in human plasma.
The mark [13] stands for this setting: % remaining at 1 h in simulated gastric fluid.

Structures are written as SMILES.

What is called Papp is a coefficient for how fast a substance crosses the barrier.

On to `COCCOCCOC(=O)OCn1ccc2c1c(=O)[nH]c(=S)n2CCOC(C)C` [Example 105, 2-(2-methoxyethoxy)ethyl {4-oxo-1-[2-(propan-2-yloxy)ethyl]-2-sulfanylidene-1H,2H,3H,4H,5H-pyrrolo[3,2-d]pyrimidin-5-yl}methyl carbonate], for which the SIF in series [1] (setting [5]) is reported as 84%. The Papp at 90 min, 10 µM in series [2] (setting [6]) is 24.3 ×10⁻⁶ cm/s. For the same compound, in series [3] (setting [7]), the “human Plasma stability” value came to 14%. In series [4] (setting [8]), the SGF is 95%.
On the same counts, the results for `CC(C)OCCn1c(=S)[nH]c(=O)c2c1ccn2COC(=O)N[C@H](C(=O)OC(C)(C)C)C(C)C` [Example 107, tert-butyl (2S)-3-methyl-2-{[{{4-oxo-1-[2-(propan-2-yloxy)ethyl]-2-sulfanylidene-1H,2H,3H,4H,5H-pyrrolo[3,2-d]pyrimidin-5-yl}methoxy)carbonyl]amino}butanoate] are 92%, 11.5 ×10⁻⁶ cm/s, 86% and 93%.
On to `CC(C)OCCn1c(=S)[nH]c(=O)c2c1ccn2COC(=O)N[C@H](C(=O)O)C(C)C` [Example 109, (2S)-3-methyl-2-{[({4-oxo-1-[2-(propan-2-yloxy)ethyl]-2-sulfanylidene-1H,2H,3H,4H,5H-pyrrolo[3,2-d]pyrimidin-5-yl}methoxy)carbonyl]amino}butanoic acid], for which the SIF in series [1] (setting [5]) was 96%. In series [2] (setting [9]), the Papp at 90 min, 10 µM amounted to 0.094 ×10⁻⁶ cm/s. For the same compound, the “human Plasma stability” value in series [3] (setting [7]) turned out to be 100%. For the same compound, the SGF in series [4] (setting [8]) is reported as 94%.
On the same counts, the results for `COC(=O)[C@H](CCCCN)NC(=O)OCn1ccc2c1c(=O)[nH]c(=S)n2CCOC(C)C.O=C(O)C(F)(F)F` [Example 110, trifluoroacetic acid methyl (2S)-6-amino-2-{[{{4-oxo-1-[2-(propan-2-yloxy)ethyl]-2-sulfanylidene-1H,2H,3H,4H,5H-pyrrolo[3,2-d]pyrimidin-5-yl}methoxy)carbonyl]amino}hexanoate] are 45%, 0.142 ×10⁻⁶ cm/s, 62% and 81%.
The corresponding values for `COC(=O)[C@H](CCCCNC(=O)[C@@H](NC(=O)OC(C)(C)C)C(C)C)NC(=O)OCn1ccc2c1c(=O)[nH]c(=S)n2CCOC(C)C` [Example 111, methyl (2S)-6-[(2S)-2-{[(tert-butoxy)carbonyl]amino}-3-methylbutanamido]-2-{[{{4-oxo-1-[2-(propan-2-yloxy)ethyl]-2-sulfanylidene-1H,2H,3H,4H,5H-pyrrolo[3,2-d]pyrimidin-5-yl}methoxy)carbonyl]amino}hexanoate] are 74%, 0.575 ×10⁻⁶ cm/s, 85% and 87%.
On the same counts, the results for `CC(C)OCCn1c(=S)[nH]c(=O)c2c1ccn2C(C)OC(=O)N(CC(F)(F)F)CC(F)(F)F` (centres unmarked) [Example 112, 1-{4-oxo-1-[2-(propan-2-yloxy)ethyl]-2-sulfanylidene-1H,2H,3H,4H,5H-pyrrolo[3,2-d]pyrimidin-5-yl}ethyl N,N-bis(2,2,2-trifluoroethyl)carbamate] are 100%, 21.1 ×10⁻⁶ cm/s, 99% and 100%.
Turning to `CC(C)OCCn1c(=S)[nH]c(=O)c2c1ccn2C(C)OC(=O)N(C)CC(=O)OC(C)(C)C` (centres unmarked) [Example 113, tert-butyl 2-{methyl [(1-{4-oxo-1-[2-(propan-2-yloxy)ethyl]-2-sulfanylidene-1H, 2H,3H,4H,5H-pyrrolo[3,2-d]pyrimidin-5-yl}ethoxy)carbonyl]amino}acetate], the SIF in series [1] (setting [5]) was 96%. Besides, the Papp at 90 min, 10 µM in series [2] (setting [9]) is 7.86 ×10⁻⁶ cm/s. The “human Plasma stability” value in series [3] (setting [7]) was determined as 99%. Further, the SGF in series [4] (setting [8]) is listed as 44%.
On the same counts, the results for `COC(=O)[C@H](CCCCNC(=O)[C@@H](N)C(C)C)NC(=O)OCn1ccc2c1c(=O)[nH]c(=S)n2CCOC(C)C.O=C(O)C(F)(F)F` [Example 114, trifluoroacetic acid methyl (2S)-6-[(2S)-2-amino-3-methylbutanamido]-2-{[{{4-oxo-1-[2-(propan-2-yloxy)ethyl]-2-sulfanylidene-1H,2H,3H,4H,5H-pyrrolo[3,2-d]pyrimidin-5-yl}methoxy)carbonyl]amino}hexanoate] are 89%, 0.102 ×10⁻⁶ cm/s, 93% and 98%.
The corresponding values for `CC(C)OCCn1c(=S)[nH]c(=O)c2c1ccn2C(C)OC(=O)c1ccccc1` (centres unmarked) [Example 115, 1-{4-oxo-1-[2-(propan-2-yloxy)ethyl]-2-sulfanylidene-1H,2H,3H,4H,5H-pyrrolo[3,2-d]pyrimidin-5-yl}ethyl benzoate] are 67%, 8.05 ×10⁻⁶ cm/s, 59% and 63%.
The corresponding values for `CC(C)OCCn1c(=S)[nH]c(=O)c2c1ccn2COC(=O)c1ccccc1` [Example 116, {4-oxo-1-[2-(propan-2-yloxy)ethyl]-2-sulfanylidene-1H, 2H,3H,4H,5H-pyrrolo[3,2-d]pyrimidin-5-yl}methylbenzoate] are 46%, 6.41 ×10⁻⁶ cm/s, 1% and 99%.
Consider `CC(C)OCCn1c(=S)n(COC(=O)c2ccccc2)c(=O)c2c1ccn2COC(=O)c1ccccc1` [Example 117, {3-[(benzoyloxy)methyl]-4-oxo-1-[2-(propan-2-yloxy)ethyl]-2-sulfanylidene-1H,2H,3H,4H,5H-pyrrolo[3,2-d]pyrimidin-5-yl}methylbenzoate], for which the SIF in series [1] (setting [5]) is reported as 79%. This compound displayed a Papp at 90 min, 10 µM in series [2] (setting [9]) of 5.76 ×10⁻⁶ cm/s. The “human Plasma stability” value in series [3] (setting [7]) amounted to 20%. Besides, in series [4] (setting [8]), the SGF is listed as 100%.
As for `CC(C)OCCn1c(=S)n2c(=O)c3c1ccn3COC(=O)C(C)(C)CCCCC(C)(C)C(=O)OC2` [Example 118, 5,5,10,10-Tetramethyl-16-[2-(propan-2-yloxy)ethyl]-15-sulfanylidene-3,12-dioxa-1,14,16-triazatricyclo[12.5.2.0^{17,20}]henicosa-17(20),18-diene-4,11,21-trione], the SIF in series [1] (setting [5]) is listed as 76%. In series [2] (setting [9]), this compound gave a Papp at 90 min, 10 µM of 6.6 ×10⁻⁶ cm/s. Further, the “human Plasma stability” value in series [3] (setting [7]) is listed as 73%. Besides, in series [4] (setting [8]), the SGF is given as 94%.
The corresponding values for `CC(C)OCCn1c2nc(=O)c3c1ccn3COC(=O)C(C)(C)CCCCC(C)(C)C(=O)OCS2` [Example 119, 8,8,13,13-Tetramethyl-22-[2-(propan-2-yloxy)ethyl]-6,15-dioxa-17-thia-4,19,22-triazatricyclo[16.3.1.0^{4,21}]docosa-1(21),2,18-triene-7,14,20-trione] are 98%, 31.7 ×10⁻⁶ cm/s, 90% and 94%.
`CC(C)OCCn1c(=S)[nH]c(=O)c2c1ccn2COC(=O)OCCOCCNC(=O)OC(C)(C)C` [Example 120]: the SIF in series [1] (setting [10]) is reported as 64% remaining. The Papp at 90 min, 10 µM in series [2] (setting [11]) came out at 14.9 ×10⁻⁶ cm/s. In series [3] (setting [12]), the “human Plasma stability” value came to 30% remaining. Moreover, the SGF in series [4] (setting [13]) is given as 83% remaining.
The corresponding values for `CC(C)OCCn1c(SCOC(=O)OCCOCCNC(=O)OC(C)(C)C)nc(=O)c2c1ccn2COC(=O)OCCOCCNC(=O)OC(C)(C)C` [Example 121] are 56% remaining, 1.19 ×10⁻⁶ cm/s, 34% remaining and 69% remaining.
On the same counts, the results for `CC(C)OCCn1c(=S)n(COC(=O)OCCOCCNC(=O)OC(C)(C)C)c(=O)c2c1ccn2COC(=O)OCCOCCNC(=O)OC(C)(C)C` [Example 122] are 22% remaining, 19.3 ×10⁻⁶ cm/s, 50% remaining and 85% remaining.
On the same counts, the results for `CC(C)OCCn1c(=S)[nH]c(=O)c2c1ccn2COC(=O)OCCOCCN.O=C(O)C(F)(F)F` [Example 123] are 1% remaining at, 2.44 ×10⁻⁶ cm/s, 65% remaining and 97% remaining.
Turning to `CC(C)OCCn1c(=S)[nH]c(=O)c2c1ccn2COC(=O)OC1CN(C(=O)OC(C)(C)C)C1` [Example 125], the SIF in series [1] (setting [10]) is 17% remaining. This compound also had a Papp at 90 min, 10 µM in series [2] (setting [11]) of 24.9 ×10⁻⁶ cm/s. Also, the “human Plasma stability” value in series [3] (setting [12]) is on record as 3% remaining. Besides, the SGF in series [4] (setting [13]) is listed as 85% remaining.
On the same counts, the results for `CC(C)OCCn1c(=S)[nH]c(=O)c2c1ccn2COC(=O)CCC(=O)OC(C)(C)C` [Example 126] are 67% remaining, 13.5 ×10⁻⁶ cm/s, 2% remaining and 100%.
The corresponding values for `CC(C)OCCn1c(=S)[nH]c(=O)c2c1ccn2COC(=O)C1CN(C(=O)OC(C)(C)C)C1` [Example 127] are 6% remaining, 7.79 ×10⁻⁶ cm/s, 1% remaining and 80% remaining.

The record behind these values is patent publication US20240067651A1 (Biohaven Therapeutics Ltd., priority 2019, published 2024).
